According to article PMC7897990, “TriTOX: A novel Trichomonas vaginalis assay platform for high-throughput screening of compound libraries” (International Journal for Parasitology: Drugs and Drug …, 2021):
Where two headings read alike, the source gives them in different places. Starred links: 1 amine or outer side, 2 acyl side, 3 side chain; linkers in the order of their positions; H or OH if unused. Positions of bridges follow the written chain, without caps; N, C: chain ends. Non-standard residues stand in square brackets, D forms with d. Residues, ends and D or L forms follow the SMILES beside them. Chains are numbered I, II in the order given. Actinocin(9to1) = Cc1c2oc3c(C)ccc(C(=O)[*:1])c3nc-2c(C(=O)[*:2])c(N)c1=O; Aoe = N[C@@H](CCCCCC(=O)[C@@H]1CO1)C(=O)O; NMeV = CN[CH](C(=O)O)C(C)C; Sar = CNCC(=O)O

Tests used:
[1] = test system: nontumorigenic neonatal foreskin fibroblast (NFF) cell line
[2] = test system: Trichomonas vaginalis G3 trophozoites
[3] = NFF_NS1 screen 5 µg/mL, single concentration
[4] = HTS single concentration, parasite screen 1 µg/mL, replicate 1
[5] = HTS single concentration, parasite screen 1 µg/mL, replicate 2
[6] = NFF_NS1 screen at 5 µg/mL, NFF cells
[7] = parasite screen at 1 µg/mL, replicate 1
[8] = parasite screen at 1 µg/mL, replicate 2
[9] = HTS, parasite screen at 1 µg/mL, replicate 1
[10] = HTS, parasite screen at 1 µg/mL, replicate 1, raw absorbance
[11] = HTS, parasite screen at 1 µg/mL, replicate 2
[12] = HTS, parasite screen at 1 µg/mL, replicate 2, raw absorbance
[13] = replicate 1, parasite screen at 1 µg/mL
[14] = replicate 2, parasite screen at 1 µg/mL

CC1C=CC=CC=CC=CC=CC=CC=CC(OC2OC(C)C(O)C(N)C2O)CC2OC(O)(CC(O)CC(O)C(O)CCC(O)CC(O)CC(=O)OC(C)C(C)C1O)CC(O)C2C(=O)O (centres unmarked) [BIA-A1441]
NFF_Activity [1, 3]: I (otherwise these were reported as inactive (I))
T.vaginalis_%inb_Rep1 [2, 4]: 13.68%
T.vaginalis_%inb_Rep2 [2, 5]: 14.03%

CCC1OC(=O)C(C)C(=O)C(C)C(OC2OC(C)CC(N(C)C)C2O)C(C)(OC)CC(C)C(=O)C(C)C2N(CCCCn3cnc(-c4cccnc4)c3)C(=O)OC12C (centres unmarked) [BIA-T1316]
NFF_Activity [1, 6]: I (otherwise these were reported as inactive (I))
T.vaginalis_%inb_Rep1 [2, 7]: 0.94%
T.vaginalis_%inb_Rep2 [2, 8]: 5.97%

CC[C@H]1OC(=O)[C@H](C)[C@@H](O[C@H]2C[C@@](C)(OC)[C@@H](O)[C@H](C)O2)[C@H](C)[C@@H](O[C@@H]2O[C@H](C)C[C@H](N(C)C)[C@H]2O)[C@@]2(C)CC(C)=C(O2)[C@H](C)[C@@H](O)[C@]1(C)O [Erythromycin A enol ether]
NFF_Activity ([1]; NFF_NS1 screen at 5 µg/mL): I (otherwise these were reported as inactive (I))
T.vaginalis_%inb_Rep1 [2, 9]: 5.17%
T.vaginalis_Absorbance_Rep1 [2, 10]: 0.805
T.vaginalis_%inb_Rep2 [2, 11]: 18.87%
T.vaginalis_Absorbance_Rep2 [2, 12]: 0.881

CO[C@H]1C[C@H](O[C@H]2[C@H](C)O[C@@H](O[C@@H]3/C(C)=C/C[C@@H]4C[C@@H](C[C@]5(C=C[C@H](C)[C@@H](C(C)C)O5)O4)OC(=O)[C@@H]4C=C(C)[C@@H](O)[C@H]5OC/C(=C\C=C\[C@@H]3C)[C@]54O)C[C@@H]2OC)O[C@@H](C)[C@H]1NC(C)=O [Eprinomectin B1b]
NFF_Activity [1]: I (key: active (A) compounds having >25% inhibitory activity; otherwise these were reported as inactive (I))
T.vaginalis_%inb_Rep1 [2]: 14.00%
T.vaginalis_%inb_Rep2 [2]: 14.75%
T.vaginalis_Absorbance_Rep1 [2]: 0.969
T.vaginalis_Absorbance_Rep2 [2]: 0.824

CNC[C@@H]1CC[C@@H](N)[C@@H](O[C@H]2[C@H](O)[C@@H](O[C@H]3OC[C@](C)(O)[C@H](NC)[C@H]3O)[C@H](N)C[C@@H]2N)O1 [Gentamicin C2b]
NFF_Activity ([1]; NFF_NS1 screen at 5 µg/mL): I (otherwise these were reported as inactive (I))
T.vaginalis_%inb_Rep1 [2, 9]: 11.00%
T.vaginalis_Absorbance_Rep1 [2, 10]: 0.919
T.vaginalis_%inb_Rep2 [2, 11]: 5.20%
T.vaginalis_Absorbance_Rep2 [2, 12]: 0.716

CC(=O)N[C@H]1CCOC1=O [BIA-A1493]
NFF_Activity [1, 3]: I (otherwise these were reported as inactive (I))
T.vaginalis_%inb_Rep1 [2, 4]: 15.89%
T.vaginalis_%inb_Rep2 [2, 5]: 26.61%

CCCC[C@@H](C)[C@@H](OC(=O)C[C@@H](CC(=O)O)C(=O)O)[C@H](C[C@@H](C)C[C@H](O)CCCC[C@@H](O)C[C@H](O)[C@H](C)N)OC(=O)C[C@@H](CC(=O)O)C(=O)O [Fumonisin B1]
NFF_Activity ([1]; NFF_NS1 screen at 5 µg/mL): I (otherwise these were reported as inactive (I))
T.vaginalis_%inb_Rep1 [2, 9]: 12.98%
T.vaginalis_Absorbance_Rep1 [2, 10]: 0.958
T.vaginalis_%inb_Rep2 [2, 11]: 14.05%
T.vaginalis_Absorbance_Rep2 [2, 12]: 0.854

COC1=CC(C)=CC(C)C(O)C(C)CC(C)=CC=CC(OC)C(C(C)C(O)C(C)C(=O)C=CC(C)C(O)C(C)C)OC1=O (centres unmarked) [BIA-B1162]
NFF_Activity [1, 3]: I (otherwise these were reported as inactive (I))
T.vaginalis_%inb_Rep1 [2, 4]: 15.67%
T.vaginalis_%inb_Rep2 [2, 5]: 18.37%

C=C1c2c(Cl)ccc(O)c2C(O)=C2C(=O)C3(O)C(O)=C(C(N)=O)C(=O)C(N(C)C)C3C(O)C12 (centres unmarked) [BIA-M1464]
NFF_Activity ([1]; NFF cells, screen at 5 µg/mL): I (otherwise these were reported as inactive (I))
T.vaginalis_%inb_Rep1 [2, 13]: 17.14%
T.vaginalis_%inb_Rep2 [2, 14]: 5.39%

CC(=O)Nc1c2sscc-2n(C)c1=O [BIA-T1138]
NFF_Activity [1, 6]: A (active (A) compounds having >25% inhibitory activity)
T.vaginalis_%inb_Rep1 [2, 7]: 100.00%
T.vaginalis_%inb_Rep2 [2, 8]: 97.56%

C[C@@H]1NC(=O)[C@H](CCCCCC(=O)[C@@H]2CO2)NC(=O)[C@H]2CCCN2C(=O)[C@H](Cc2ccccc2)NC1=O [BIA-A1402] (cyclo(AF[dP][Aoe]))
NFF_Activity [1, 3]: I (otherwise these were reported as inactive (I))
T.vaginalis_%inb_Rep1 [2, 4]: 64.03%
T.vaginalis_%inb_Rep2 [2, 5]: 94.29%

O=C(O)c1nccc2c1[nH]c1ccccc12 [BIA-F1943]
NFF_Activity [1, 3]: I (otherwise these were reported as inactive (I))
T.vaginalis_%inb_Rep1 [2, 4]: 8.34%
T.vaginalis_%inb_Rep2 [2, 5]: 10.54%

O=C1CCCC2C3CC(CN12)C1CC(O)CCN1C3 (centres unmarked) [BIA-H1961]
NFF_Activity ([1]; NFF cells, screen at 5 µg/mL): I (otherwise these were reported as inactive (I))
T.vaginalis_%inb_Rep1 [2, 13]: 9.18%
T.vaginalis_%inb_Rep2 [2, 14]: 14.99%

CC(C)[C@@H]1OC(=O)[C@@H](Cc2ccccc2)N(C)C(=O)[C@H](C(C)C)OC(=O)[C@@H](Cc2ccccc2)N(C)C(=O)[C@H](C(C)C)OC(=O)[C@@H](Cc2ccccc2)N(C)C1=O [BIA-B1238]
NFF_Activity [1, 3]: I (otherwise these were reported as inactive (I))
T.vaginalis_%inb_Rep1 [2, 4]: 16.21%
T.vaginalis_%inb_Rep2 [2, 5]: 4.70%

C=C1C(=O)OC2C(=O)OC(CCCCCCCC)C12 (centres unmarked) [BIA-A1409]
NFF_Activity [1, 3]: A (active (A) compounds having >25% inhibitory activity)
T.vaginalis_%inb_Rep1 [2, 4]: 15.19%
T.vaginalis_%inb_Rep2 [2, 5]: 12.94%

C=C[C@@](C)(CCC=C(C)C)c1ccc2c3c(c[nH]c13)C[C@@H](CO)NC(=O)[C@H](C(C)C)N2C [BIA-T1429]
NFF_Activity [1, 6]: I (otherwise these were reported as inactive (I))
T.vaginalis_%inb_Rep1 [2, 7]: 11.80%
T.vaginalis_%inb_Rep2 [2, 8]: 16.64%

C=CC1(C)CC(OC(=O)CSC2CC3CCC(C2)N3C)C2(C)C(C)CCC3(CCC(=O)C32)C(C)C1O (centres unmarked) [BIA-R1491]
NFF_Activity [1, 6]: I (otherwise these were reported as inactive (I))
T.vaginalis_%inb_Rep1 [2, 7]: 10.45%
T.vaginalis_%inb_Rep2 [2, 8]: 11.55%

CCCCCCCCCCC[C@@H](C[C@@H]1OC(=O)[C@H]1CCCCCC)OC(=O)[C@H](CC(C)C)NC=O [BIA-T1320]
NFF_Activity [1, 6]: I (otherwise these were reported as inactive (I))
T.vaginalis_%inb_Rep1 [2, 7]: 10.91%
T.vaginalis_%inb_Rep2 [2, 8]: 19.44%

COC1=CC(C)=CC(C)C(O)C(C)CC(C)=CC=CC(OC)C(C(C)C(O)C(C)C2(O)CC(OC(=O)C=CC(=O)NC3=C(O)CCC3=O)C(C)C(C(C)C)O2)OC1=O (centres unmarked) [BIA-B1110]
NFF_Activity [1, 3]: I (otherwise these were reported as inactive (I))
T.vaginalis_%inb_Rep1 [2, 4]: 72.75%
T.vaginalis_%inb_Rep2 [2, 5]: 93.35%

COc1cc2c(c3oc(=O)c4c(c13)CCOC4=O)[C@@H]1C=CO[C@@H]1O2 [BIA-A1234]
NFF_Activity [1, 3]: I (otherwise these were reported as inactive (I))
T.vaginalis_%inb_Rep1 [2, 4]: 14.70%
T.vaginalis_%inb_Rep2 [2, 5]: 13.02%

Cc1c2ccocc-2oc1=O [BIA-K1791]
NFF_Activity ([1]; NFF cells, screen at 5 µg/mL): I (otherwise these were reported as inactive (I))
T.vaginalis_%inb_Rep1 [2, 13]: 12.47%
T.vaginalis_%inb_Rep2 [2, 14]: 13.47%

Cc1cccc(O)c1C(=O)O [BIA-M1655]
NFF_Activity ([1]; NFF cells, screen at 5 µg/mL): I (otherwise these were reported as inactive (I))
T.vaginalis_%inb_Rep1 [2, 13]: 11.00%
T.vaginalis_%inb_Rep2 [2, 14]: 14.69%

Cc1c2oc3c(C)ccc(C(=O)NC4C(=O)NC(C(C)C)C(=O)N5CCCC5C(=O)N(C)CC(=O)N(C)C(C(C)C)C(=O)OC4C)c3nc-2c(C(=O)NC2C(=O)NC(C(C)C)C(=O)N3CCCC3C(=O)N(C)CC(=O)N(C)C(C(C)C)C(=O)OC2C)c(N)c1=O (centres unmarked) [BIA-A1185] (I: TVP[Sar][NMeV] / II: TVP[Sar][NMeV]; ester I:1-I:C, II:1-II:C; linker I:N-II:N via Actinocin(9to1); configuration not given here)
NFF_Activity [1, 3]: I (otherwise these were reported as inactive (I))
T.vaginalis_%inb_Rep1 [2, 4]: 0.00%
T.vaginalis_%inb_Rep2 [2, 5]: 40.20%

O=c1cc(CO)occ1O [BIA-K1696]
NFF_Activity ([1]; NFF cells, screen at 5 µg/mL): I (otherwise these were reported as inactive (I))
T.vaginalis_%inb_Rep1 [2, 13]: 13.34%
T.vaginalis_%inb_Rep2 [2, 14]: 13.98%

Cc1cc(O)c2c(c1)C(=O)c1c(c(O)cc(O)c1-c1c(O)cc(O)c3c1C(=O)c1cc(C)cc(O)c1C3=O)C2=O [BIA-S1662]
NFF_Activity [1, 6]: I (otherwise these were reported as inactive (I))
T.vaginalis_%inb_Rep1 [2, 7]: 9.89%
T.vaginalis_%inb_Rep2 [2, 8]: 5.90%

CC1=CC(O/C=C2\CCOC2=O)OC1=O (centres unmarked) [GR5]
NFF_Activity ([1]; NFF_NS1 screen at 5 µg/mL): I (otherwise these were reported as inactive (I))
T.vaginalis_%inb_Rep1 [2, 9]: 9.60%
T.vaginalis_Absorbance_Rep1 [2, 10]: 0.948
T.vaginalis_%inb_Rep2 [2, 11]: 13.10%
T.vaginalis_Absorbance_Rep2 [2, 12]: 0.852

O=[N+]([O-])c1ncc[nH]1 [BIA-A1690]
NFF_Activity [1, 3]: I (otherwise these were reported as inactive (I))
T.vaginalis_%inb_Rep1 [2, 4]: 15.19%
T.vaginalis_%inb_Rep2 [2, 5]: 9.83%

COc1cc(/C=C/C(=O)O)ccc1O [Ferulic acid]
NFF_Activity ([1]; NFF_NS1 screen at 5 µg/mL): I (otherwise these were reported as inactive (I))
T.vaginalis_%inb_Rep1 [2, 9]: 13.69%
T.vaginalis_Absorbance_Rep1 [2, 10]: 0.972
T.vaginalis_%inb_Rep2 [2, 11]: 12.64%
T.vaginalis_Absorbance_Rep2 [2, 12]: 0.832

CC1(C)CC[C@]2(C(=O)O)CC[C@]3(C)C(=CC[C@@H]4[C@@]5(C)C[C@@H](O)[C@H](O)[C@@](C)(CO)[C@@H]5CC[C@]43C)[C@@H]2C1 [BIA-A1754]
NFF_Activity [1, 3]: I (otherwise these were reported as inactive (I))
T.vaginalis_%inb_Rep1 [2, 4]: 13.25%
T.vaginalis_%inb_Rep2 [2, 5]: 12.44%

C=C1[C@@H](C)[C@H]2[C@H](Cc3ccccc3)NC(=O)[C@]23[C@H](OC(C)=O)[C@@H]2O[C@H]2[C@@](C)(O)C(=O)[C@@H](C)C/C=C\[C@H]3[C@@H]1O [Epoxycytochalasin D, 19,20-]
NFF_Activity ([1]; NFF_NS1 screen at 5 µg/mL): I (otherwise these were reported as inactive (I))
T.vaginalis_%inb_Rep1 [2, 9]: 12.71%
T.vaginalis_Absorbance_Rep1 [2, 10]: 0.945
T.vaginalis_%inb_Rep2 [2, 11]: 12.22%
T.vaginalis_Absorbance_Rep2 [2, 12]: 0.789

CCCCC[C@@H]1CC[C@H](C)CCCCC(=O)N(C)[C@@H](Cc2ccc(OCCO)cc2)C(=O)O1 [PF1163B]
NFF_Activity ([1]; NFF fibroblasts, single concentration 5 µg/mL): I (otherwise these were reported as inactive (I))
T.vaginalis_%inb_Rep1 ([2]; HTS replicate 1, parasite screen 1 µg/mL): 17.85%
T.vaginalis_%inb_Rep2 ([2]; HTS replicate 2, parasite screen 1 µg/mL): 14.30%

COc1cc2c(c3oc(=O)c4c(c13)CCC4=O)[C@@H]1CCO[C@@H]1O2 [BIA-A1233]
NFF_Activity [1, 3]: I (otherwise these were reported as inactive (I))
T.vaginalis_%inb_Rep1 [2, 4]: 13.46%
T.vaginalis_%inb_Rep2 [2, 5]: 11.14%
